Consider one compound from ChEMBL document CHEMBL5120922, “Discovery, Optimization, and Evaluation of Potent and Selective PI3Kδ-γ Dual Inhibitors for the Treatment of B-cell Malignancies” (J Med Chem, 2022).

Structures are written as SMILES.

The subject of series [1] is SU-DHL-6. As to the kind of experiment: Induction of apoptosis in human SU-DHL-6 cells assessed as necrotic cells at 1.5 uM incubated for 48 hrs in presence of ibrutinib by annexin V-FITC and PI staining based flow cytometry analysis (reference value: 0.32%). It counts as functional.
Series [2] in a line: Oral bioavailability in Sprague-Dawley rat at 5 mg/kg measured upto 24 hrs by LC-MS/MS analysis. Format: ADME, organism-based. Particulars: in vivo.
Series [3] can be described thus: AUC(0 to t) in Sprague-Dawley rat at 5 mg/kg, po measured upto 24 hrs by LC-MS/MS analysis. Format: ADME, organism-based. Also noted: dose 5 mg/kg, time < 24 hrs, route po. Particulars: in vivo.
Series [4] deals with DOHH-2. The series is described as follows: Induction of cell cycle arrest in human DOHH-2 cells assessed as accumulation of cells at G0/G1 phase at 0.5 uM incubated for 24 hrs by PI staining based flow cytometry analysis (reference value: 23.47 %). It counts as functional.
In series [5] the test system is SU-DHL-6. The series is described as follows: Induction of apoptosis in human SU-DHL-6 cells assessed as early apoptotic cells at 1.5 uM incubated for 48 hrs in presence of ibrutinib by annexin V-FITC and PI staining based flow cytometry analysis (reference value: 8.81 %). It counts as functional.
Series [6] addresses Phosphatidylinositol 4,5-bisphosphate 3-kinase catalytic subunit alpha isoform (Homo sapiens, UniProt P42336). As to the kind of experiment: Inhibition of N-terminal His6-tagged recombinant full length human PI3Kalpha expressed in baculovirus infected Sf21 insect cells incubated for 30 mins by HTRF assay.
Series [7] is described as follows: Toxicity in human SU-DHL-6 cells xenografted in NOD/SCID mouse at 10 mg/kg, po measured every 2 days in presence of ibrutinib. Format: organism-based. Particulars: in vivo, 48 h, time 2 day.
The target in series [8] is T1, Phosphatidylinositol 4,5-bisphosphate 3-kinase catalytic subunit delta isoform (Homo sapiens, UniProt O00329).
T1 sequence (O00329 whole entry): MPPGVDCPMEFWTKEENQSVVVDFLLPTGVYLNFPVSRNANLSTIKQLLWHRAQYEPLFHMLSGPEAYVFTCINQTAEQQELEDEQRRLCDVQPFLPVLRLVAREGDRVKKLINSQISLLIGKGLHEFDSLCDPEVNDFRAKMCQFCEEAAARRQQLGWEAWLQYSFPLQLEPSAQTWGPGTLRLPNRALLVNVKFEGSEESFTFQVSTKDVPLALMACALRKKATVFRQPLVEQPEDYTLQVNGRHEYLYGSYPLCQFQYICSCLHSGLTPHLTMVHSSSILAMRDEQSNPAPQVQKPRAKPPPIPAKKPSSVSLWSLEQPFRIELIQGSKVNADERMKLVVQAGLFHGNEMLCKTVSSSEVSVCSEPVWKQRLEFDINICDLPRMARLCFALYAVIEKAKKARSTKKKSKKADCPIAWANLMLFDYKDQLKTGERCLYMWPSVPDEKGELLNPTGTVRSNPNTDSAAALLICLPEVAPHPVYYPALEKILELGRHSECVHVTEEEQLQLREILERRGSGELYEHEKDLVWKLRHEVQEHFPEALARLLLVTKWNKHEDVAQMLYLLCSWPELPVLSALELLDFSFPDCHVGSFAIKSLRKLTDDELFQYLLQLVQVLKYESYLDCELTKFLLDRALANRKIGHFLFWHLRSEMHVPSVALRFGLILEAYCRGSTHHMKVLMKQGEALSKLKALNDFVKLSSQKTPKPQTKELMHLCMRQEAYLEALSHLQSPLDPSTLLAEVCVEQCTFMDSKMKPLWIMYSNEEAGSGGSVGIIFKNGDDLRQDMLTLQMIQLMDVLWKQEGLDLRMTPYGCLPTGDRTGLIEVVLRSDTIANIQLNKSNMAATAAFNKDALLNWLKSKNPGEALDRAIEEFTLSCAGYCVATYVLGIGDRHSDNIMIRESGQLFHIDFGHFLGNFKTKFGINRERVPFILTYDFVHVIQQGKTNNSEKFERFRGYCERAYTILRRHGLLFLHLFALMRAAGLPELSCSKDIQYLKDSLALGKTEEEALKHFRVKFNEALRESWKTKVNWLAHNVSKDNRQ
As to the kind of experiment: Inhibition of N-terminal His6-tagged recombinant full length human PI3Kdelta expressed in baculovirus infected Sf21 insect cells incubated for 30 mins by HTRF assay.

Series [9] relates to SU-DHL-6. The series is described as follows: Induction of cell cycle arrest in human SU-DHL-6 cells assessed as accumulation of cells at G2/M phase at 0.5 uM incubated for 24 hrs by PI staining based FACScan flow cytometry analysis (reference value: 20.21 %). Format: functional.
Series [10] is described as follows: Half life in Sprague-Dawley rat at 2 mg/kg, iv measured upto 24 hrs by LC-MS/MS analysis. Format: ADME, organism-based. As to conditions: in vivo.
Series [11] can be described thus: Volume of distribution at steady state in Sprague-Dawley rat at 5 mg/kg, iv measured upto 24 hrs by LC-MS/MS analysis. As to conditions: in vivo, read-out: Vdss. It counts as ADME, organism-based.
A short description of series [12]: Half life in Sprague-Dawley rat at 5 mg/kg, iv measured upto 24 hrs by LC-MS/MS analysis. Format: ADME, organism-based. As to conditions: in vivo.
The subject of series [13] is DOHH-2. The series is described as follows: Induction of apoptosis in human DOHH-2 cells assessed as necrotic cells at 2 uM incubated for 48 hrs by annexin V-FITC and PI staining based flow cytometry analysis (Rvb =0.29 %). Format: functional.
The nature of series [14]: AUC(0 to t) in Sprague-Dawley rat at 2 mg/kg, iv measured upto 24 hrs by LC-MS/MS analysis. It counts as ADME, organism-based. Also noted: time < 24 hrs, dose 2 mg/kg, route iv. As to conditions: in vivo.
A further series is filed under the species Homo sapiens. As to the kind of experiment: Selectivity ratio of IC50 for N-terminal His6-tagged recombinant full length human PI3Kbeta expressed in baculovirus infected Sf21 insect cells to IC50 for N-terminal His6-tagged recombinant full length human PI3Kgamma expressed in baculovirus infected Sf21 insect cells.
In series [15] the test system is DOHH-2. As to the kind of experiment: Induction of apoptosis in human DOHH-2 cells assessed as late apoptotic cells at 2 uM incubated for 48 hrs by annexin V-FITC and PI staining based flow cytometry analysis (reference value: 2.20 %). It counts as functional.
Series [16] in a line: Cmax in Sprague-Dawley rat at 5 mg/kg, iv measured upto 24 hrs by LC-MS/MS analysis. It counts as ADME, organism-based. As to conditions: in vivo. Also noted: time < 24 hrs, dose 5 mg/kg, route iv.
For series [17], the system named is DOHH-2. As to the kind of experiment: Induction of apoptosis in human DOHH-2 cells assessed as early apoptotic cells at 2 uM incubated for 48 hrs by annexin V-FITC and PI staining based flow cytometry analysis (reference value: 2.09 %). It counts as functional.
Series [18] has as its system DOHH-2. As to the kind of experiment: Induction of cell cycle arrest in human DOHH-2 cells assessed as accumulation of cells at G0/G1 phase at 0.5 uM incubated for 24 hrs in presence of ibrutinib by PI staining based flow cytometry analysis (reference value: 23.47 %). Format: functional.
Series [19] has as its system DOHH-2. The series is described as follows: Induction of apoptosis in human DOHH-2 cells assessed as early apoptotic cells at 2 uM incubated for 48 hrs in presence of ibrutinib by annexin V-FITC and PI staining based flow cytometry analysis (reference value: 2.09 %). It counts as functional.
Series [20] concerns SU-DHL-6. The series is described as follows: Induction of apoptosis in human SU-DHL-6 cells assessed as early apoptotic cells at 1.5 uM incubated for 48 hrs by annexin V-FITC and PI staining based flow cytometry analysis (reference value: 8.81 %). It counts as functional.
For series [21], the system named is DOHH-2. As to the kind of experiment: Antiproliferative activity against human DOHH-2 cells assessed as cell growth inhibition measured after 72 hrs by MTT assay. Format: functional, cell-based. As to conditions: DOHH-2, 72 h.
For series [22], the system named is DOHH-2. As to the kind of experiment: Induction of cell cycle arrest in human DOHH-2 cells assessed as accumulation of cells at G2/M phase at 0.5 uM incubated for 24 hrs by PI staining based flow cytometry analysis (reference value: 21.42 %). It counts as functional.

Chain of Phosphatidylinositol 4,5-bisphosphate 3-kinase catalytic subunit alpha isoform (P42336 whole entry, canonical isoform): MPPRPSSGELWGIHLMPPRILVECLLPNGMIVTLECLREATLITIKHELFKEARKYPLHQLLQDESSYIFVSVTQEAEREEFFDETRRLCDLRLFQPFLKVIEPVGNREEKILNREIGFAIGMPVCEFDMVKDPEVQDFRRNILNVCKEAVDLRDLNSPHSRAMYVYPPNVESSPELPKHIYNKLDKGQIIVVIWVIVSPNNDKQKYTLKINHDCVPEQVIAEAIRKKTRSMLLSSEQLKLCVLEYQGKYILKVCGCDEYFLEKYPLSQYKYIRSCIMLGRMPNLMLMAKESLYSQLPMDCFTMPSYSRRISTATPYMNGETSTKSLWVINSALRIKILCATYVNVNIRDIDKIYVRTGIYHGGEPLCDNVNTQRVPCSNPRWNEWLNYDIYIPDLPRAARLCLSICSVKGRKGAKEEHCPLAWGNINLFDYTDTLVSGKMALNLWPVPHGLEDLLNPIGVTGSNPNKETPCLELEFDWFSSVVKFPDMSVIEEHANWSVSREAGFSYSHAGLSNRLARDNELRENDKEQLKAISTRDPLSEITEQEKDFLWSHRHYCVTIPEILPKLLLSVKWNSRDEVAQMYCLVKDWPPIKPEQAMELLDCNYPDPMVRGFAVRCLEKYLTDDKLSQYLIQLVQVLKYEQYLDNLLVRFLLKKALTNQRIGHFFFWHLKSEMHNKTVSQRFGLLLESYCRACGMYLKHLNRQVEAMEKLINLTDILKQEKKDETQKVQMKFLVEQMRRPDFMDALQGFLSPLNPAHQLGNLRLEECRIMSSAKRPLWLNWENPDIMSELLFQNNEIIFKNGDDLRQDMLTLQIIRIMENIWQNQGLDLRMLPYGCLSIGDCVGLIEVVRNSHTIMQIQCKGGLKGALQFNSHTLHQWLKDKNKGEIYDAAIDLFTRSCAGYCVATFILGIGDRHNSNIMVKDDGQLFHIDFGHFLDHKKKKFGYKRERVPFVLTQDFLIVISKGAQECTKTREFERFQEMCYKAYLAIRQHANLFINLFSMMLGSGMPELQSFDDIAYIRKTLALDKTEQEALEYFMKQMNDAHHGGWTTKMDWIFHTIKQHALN

For `C[C@H]1CC[C@@H](c2nc3cccc(Cl)c3c(=O)n2-c2cccnc2)N1c1nc(N)nc(N)c1C#N`, the Activity is listed as 0.25% in the series with SU-DHL-6 [1]; 36.44% in the series on DOHH-2 [4]; 34.5% in the series with SU-DHL-6 [5]; “Non-Toxic” in series [7]; 10.01% with SU-DHL-6 [9]; 1.45% in the series on DOHH-2 [13]. Further, the Activity in the series with DOHH-2 [15] was 17.6%; in the series with DOHH-2 [17], 20.4%; in the series with DOHH-2 [18], 53.16%; in the series with DOHH-2 [19] it was 48.9%; in the series on SU-DHL-6 [20] it was 17.7%; in the series with DOHH-2 [22], 12.82%. Further, the bioavailability in series [2] was 126%. The area under the curve AUC(0-t) at 24 h in series [3] came out at 8610 ng·h/mL; in [14], 1150 ng·h/mL. Further, the results for the IC50 (in series [6]; in series [8]; with DOHH-2 [21]) were 794000 nM, 1000 nM and 200 nM, respectively. The half-life in series [10] was 0.73 h; in [12], 2.79 h. Moreover, in series [11], the Vd turned out to be 2.86 L/kg. For the same compound, the Ratio IC50 in the series filed under Homo sapiens was found to be 84. In addition, the concentration in [16] peaked (Cmax) at 860 ng/mL.
